{"source": "paper PMC5125864", "about": "(Molecular and biochemical parasitology, 2016)", "molecular_target": "T1, ehRad51 (Entamoeba histolytica, UniProt C4M4K4)", "T1 sequence (C4M4K4 1-366)": "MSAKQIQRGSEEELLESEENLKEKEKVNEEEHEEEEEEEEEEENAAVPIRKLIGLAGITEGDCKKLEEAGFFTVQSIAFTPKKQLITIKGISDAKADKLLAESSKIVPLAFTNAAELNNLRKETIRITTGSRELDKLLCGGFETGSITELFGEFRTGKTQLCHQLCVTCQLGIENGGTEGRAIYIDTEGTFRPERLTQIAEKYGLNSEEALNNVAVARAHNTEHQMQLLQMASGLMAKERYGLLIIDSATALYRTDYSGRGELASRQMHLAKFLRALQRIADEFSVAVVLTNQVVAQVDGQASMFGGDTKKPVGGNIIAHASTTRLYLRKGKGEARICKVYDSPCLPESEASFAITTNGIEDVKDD", "assay": "oligonucleotide DNA strand exchange", "assay_type": "biochemical", "note": "pIC50: −log10 of the molar value.", "data": [{"smiles": "O=S(=O)(O)c1cc(N=C=S)ccc1C=Cc1ccc(N=C=S)cc1S(=O)(=O)O", "note": "[DIDS, 4,4′-diisothiocyanostilbene-2,2′-disulfonic acid]", "values": [{"measurement": "pIC50", "result": 4.73}]}]}
